Assay results from US7781443B2, “Tetrahydronaphthyridine derivatives and a process for preparing the same” (Mitsubishi Tanabe Pharma Corporation, priority 2004, dated 2010).

Biological target: T1, CETP (Homo sapiens, UniProt P11597)
T1 construct: from tissue; host or cells: plasma from a healthy volunteer (diluted to 0.64%)
T1 sequence (P11597 18-493): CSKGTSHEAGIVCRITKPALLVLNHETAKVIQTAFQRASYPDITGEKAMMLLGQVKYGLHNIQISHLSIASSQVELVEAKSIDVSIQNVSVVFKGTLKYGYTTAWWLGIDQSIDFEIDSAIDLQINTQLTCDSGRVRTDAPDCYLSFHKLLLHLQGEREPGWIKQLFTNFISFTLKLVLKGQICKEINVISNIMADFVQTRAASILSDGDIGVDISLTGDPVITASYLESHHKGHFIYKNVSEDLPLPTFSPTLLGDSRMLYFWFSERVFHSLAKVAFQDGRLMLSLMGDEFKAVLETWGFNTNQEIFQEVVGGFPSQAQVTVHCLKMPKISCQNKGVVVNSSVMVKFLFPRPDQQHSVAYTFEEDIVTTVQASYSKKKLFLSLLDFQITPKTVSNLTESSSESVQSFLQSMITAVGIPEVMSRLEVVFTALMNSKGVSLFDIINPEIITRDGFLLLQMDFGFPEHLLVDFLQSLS
Assay: Inhibitory activity against CETP in vitro (fluorescent BODIPY-CE transfer from donor to acceptor microemulsion in diluted human plasma)
Assay type: biochemical
Details: plasma from a healthy volunteer diluted to 0.64%; preincubation with test solution 37° C. 24 hours; incubation with donor/acceptor microemulsion 37° C. 3 hours; fluorescence Ex.550 nm/Em.600 nm
Description: The inhibitory activity of the compounds of the present invention against CETP was tested in this experiment.
A solution of 1-Palmitoyl-2-oleoyl-sn-glycero-3-phosphocholine (3.5 mg), cholesteryl oleate (3 mg) and triolein (0.7 mg) in chloroform was mixed and lipid was air-dried under nitrogen gas to remove solvent. Dioxane (0.25 ml) was then added and the mixture was stirred for dissolution. The resultant lipid solution (0.2 ml) was slowly injected under the surface of Tris-saline-EDTA(TSE) buffer solution [10 mM Tris/HCl (pH 7.4), 0.15 M NaCl, 2 mM EDTA] (10 ml) with Hamilton syringe, while sonicating in ice-bath. After 1-hour-sonication in ice-bath, the solution was stored at 4° C.
A solution of egg PC (phosphatidylcholine) (0.33 mg) and BODIPY-CE (0.62 mg) in chloroform was mixed. After removing solvent by air-drying lipid under nitrogen gas, TSE buffer solution (3 ml) was added and the solution was sonicated in ice-bath. This solution was filtered to sterilize through 0.22 μm filter and stored at 4° C.
A test solution was prepared using dimethyl sulfoxide as a solvent. Plasma from a healthy volunteer was diluted to 0.64% with TSE buffer, and to the resultant plasma solution (187 μl) was added a test solution (3 μl) or the solvent alone followed by incubation at 37° C. for 24 hours. After addition of TSE buffer solution (10 μl) containing 5% donor microemulsion and 5% acceptor microemulsion, the mixture was incubated at 37° C. for 3 hours. Before and after the incubation, the fluorescence intensity was measured at Ex.550 nm/Em.600 nm. CETP activity was defined as the difference between the measurements obtained before incubation and after incubation. The decreasing rate of the difference in the sample was defined as the inhibition rate of CETP activity. IC50 for each sample was calculated from the inhibition rate of CETP activity.

| IC50 | Compound |
| --- | --- |
| 390 pM | CCOC(=O)N1c2ccc(OC)nc2[C@@H](N(Cc2cc(C(F)(F)F)cc(C(F)(F)F)c2)c2ncc(N3CCOCC3)cn2)C[C@H]1CC [Example 22] |
| 110 pM | CCOC(=O)N1c2ccc(OC)nc2[C@@H](N(Cc2cc(C(F)(F)F)cc(C(F)(F)F)c2)c2ncc(OCCS(C)(=O)=O)cn2)C[C@H]1CC [Example 116] |
| 1900 pM | CCOC(=O)N1c2ccc(OC)nc2[C@@H](N(Cc2cc(C(F)(F)F)cc(C(F)(F)F)c2)c2ncc(OCCC(=O)O)cn2)C[C@H]1CC [Example 269, (2R,4S)-4-{[3,5-bis(trifluoromethyl)benzyl]-[5-(2-carboxyethoxy)pyrimidin-2-yl]}amino-2-ethyl-6-methoxy-3,4-dihydro-2H-[1,5]naphthyridine-1-carboxylic acid ethyl ester] |
| 400 pM | CCOC(=O)N1c2ccc(N(C)C)nc2[C@@H](N(Cc2cc(C(F)(F)F)cc(C(F)(F)F)c2)c2ncc(N3CCN(C(C)=O)CC3)cn2)C[C@H]1CC [Example 337, (2R,4S)-4-{[5-(4-acetylpiperazin-1-yl)pyrimidin-2-yl]-[3,5-bis(trifluoromethyl)-benzyl]}amino-6-dimethylamino-2-ethyl-3,4-dihydro-2H-[1,5]naphthyridine-1-carboxylic acid ethyl ester] |
| 980 pM | CCC1CC(N(Cc2cc(C(F)(F)F)cc(C(F)(F)F)c2)c2ncc(CCC(=O)O)cn2)c2nc(OC)ccc2N1C(=O)OCC(F)(F)F (stereo not shown) [Example 356] |
| 4600 pM | CCOC(=O)N1c2ccc(OC)nc2[C@@H](N(Cc2cc(C(F)(F)F)cc(C(F)(F)F)c2)c2ccc(N3CCC(C(=O)O)CC3)cn2)C[C@H]1CC [Example 383] |
| 830 pM | CC[C@@H]1C[C@H](N(Cc2cc(C(F)(F)F)cc(C(F)(F)F)c2)c2ncc(N3CCOCC3)cn2)c2nc(OC)ccc2N1C(=O)OCC(C)(C)C(=O)O [Example 409] |
